Laboratory results published in patent US9567347B2, “Use of small molecule inhibitors targeting the interaction between RAC GTPase and p67(phox)” (CHILDREN'S HOSPITAL MEDICAL CENTER, priority 2012, dated 2017).
“Also recorded” adds a separate entry of the source.

Tests used:
Rac1V12 protein = target: T1, Rac1V12 protein (Homo sapiens, UniProt P63000, G12V); assay: microscale thermophoresis binding to Rac1V12; details: various concentrations
T1 construct: GST; made in house
Protocol: (§1) The p67^phox protein was expressed in BL21(DE3) bacteria (Stratagene) using the pET30-HIS p67(1-212) plasmid. Protein was purified using the QIAexpress Ni-NTA kit (Qiagen) or the GST Bind Resin Chromatography Kit (Novagen) for RacV12 and RacWT proteins. Mutagenesis was carried out using the Quick Change Lightening Site Directed Mutagenesis Kit (Stratagene).
(§2) Proteins were labeled for microscale thermophoresis using the Monolith NT Protein Labeling Kit Red (Nano Temper Technologies) as recommended by the manufacturer. Binding reactions were carried out using the Monolith NT. 115 (Nano Temper Technologies). Binding data was analyzed using Graphpad Prizm to estimate Kd values. The arbitrary fluorescence value from the thermophoresis plots for the smallest compound titration was subtracted from every other data point (Delta depletion) prior to normalization to a Vmax of 100. In thermophoresis plots where there was no binding, a curve could not be fit and therefore no Vmax could be assigned. In these instances the highest delta depletion value was set to 100 and all data were normalized accordingly.
(§3) Next, to perform a competition binding, p67^phox protein was first incubated with either 5 μM Phox-I1 or an equal volume of vehicle control for 15 min prior to titration of purified Rac1V12 protein. […]

Pak = assay: immunoblot of phosphorylated Pak; assay type: cell-based, human; details: 18 hr treatment
Protocol: Whole-cell lysates were prepared by cell extraction using lysis buffer containing 20 mM Tris-HCl (pH 7.6), 100 mM NaCl, 10 mM MgCl2, 1% Triton X-100, 0.2% sodium deoxycholate, 1 mM phenylmethylsulfonyl fluoride, 10 μg/mL of leupeptin, 1 μg/mL of aprotinin, and 1 mM dithiothreitol for 30 min. Equal amounts of protein, as determined by Bradford assay, were resolved by SDS-PAGE. Specific proteins were detected by standard 9 immunoblotting procedures using the following primary antibodies: (Cell Signaling, 1:500 dilution) phospho-PAK1 (Ser144)/PAK2 (Ser141), (Sigma-Aldrich 1:500) β-Actin.
To analyze the biochemical specificity of these lead inhibitors on the effector pathways of active Rac1, undifferentiated HL-60 cells were treated with Phox-I1, Phox-I2, or NSC23766 for 18 hr. Immunoblot of the cell lysates was performed to probe the activity of Pak, a Rac effector other than p67^phox (FIG. 4B).

p67^phox mutation, R188A = target: T2, p67^phox mutation, R188A (Homo sapiens, UniProt P19878, R188A); assay: microscale thermophoresis binding to p67phox R188A mutant; details: residue outside region critical for Rac1-GTP interaction
T2 construct: using the pET30-HIS p67(1-212) plasmid; His; made in house; host or cells: E. coli BL21(DE3)
T2 sequence (P19878 1-212 R188A): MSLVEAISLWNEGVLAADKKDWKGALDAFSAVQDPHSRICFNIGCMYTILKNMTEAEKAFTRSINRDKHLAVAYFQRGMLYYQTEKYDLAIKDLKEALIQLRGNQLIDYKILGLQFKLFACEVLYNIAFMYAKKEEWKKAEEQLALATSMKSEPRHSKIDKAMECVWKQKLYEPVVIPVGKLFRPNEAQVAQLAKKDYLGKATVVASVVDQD
Protocol: as §1, §2, §3

[1] = system: primary murine neutrophils; assay: F-actin immunofluorescence, polarization upon fMLP stimulation; assay type: cell-based, mouse; details: 10 μM; untreated control about 80%
Protocol: Cells were pretreated with compound for 40 minutes prior to wash, and resuspended in HBSS with compound. Cells were allowed to adhere to fibronectin (Sigma Aldrich) coated glass coverslips (15 min) and then stimulated with 100 nM fMLP (3 min). Coverslips were then fixed with 3.7% paraformaldehyde (Sigma Aldrich) and then staining for […] was performed with rhodamine phalloidin per the manufacturer's instructions (Molecular Probes). Another method of addressing Rac-signaling specificity in neutrophils is by monitoring their ability to polarize actin to the leading edge upon fMLP stimulation. Neither Phox-I1, Phox-I2, nor an analog 13 (all at 10 μM), were able to block the Rac-mediated dynamic process of F-actin polarization to the leading edge of primary murine neutrophils as observed by F-actin immunofluorescence imaging (FIG. 4C, left panel). F-actin polarization was evident in about 80% of each treatment group of cells as in the control, untreated cells (FIG. 4C, right panel).

reconstituted NOX2 = target: T3, reconstituted NOX2 (Homo sapiens, UniProt P19878); assay: cell-free superoxide production assay; assay type: biochemical; details: reconstitution conditions, FIG. 7
T3 sequence (P19878 1-526): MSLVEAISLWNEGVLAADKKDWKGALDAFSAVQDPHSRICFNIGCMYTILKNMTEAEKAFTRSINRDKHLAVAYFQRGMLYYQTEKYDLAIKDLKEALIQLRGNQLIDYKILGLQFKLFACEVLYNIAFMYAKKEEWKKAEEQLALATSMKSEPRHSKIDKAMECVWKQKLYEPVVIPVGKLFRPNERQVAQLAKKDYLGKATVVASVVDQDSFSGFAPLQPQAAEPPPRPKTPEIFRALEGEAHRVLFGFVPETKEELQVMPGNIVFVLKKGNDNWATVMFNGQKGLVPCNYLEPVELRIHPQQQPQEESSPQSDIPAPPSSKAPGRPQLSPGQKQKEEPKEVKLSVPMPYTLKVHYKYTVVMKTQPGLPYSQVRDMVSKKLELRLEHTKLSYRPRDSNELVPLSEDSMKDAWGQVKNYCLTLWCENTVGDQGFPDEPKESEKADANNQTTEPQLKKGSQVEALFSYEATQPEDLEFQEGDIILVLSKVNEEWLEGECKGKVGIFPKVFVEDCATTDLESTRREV
Protocol: In order to complement the in silico and cellular results, Phox-I1 and Phox-I2 were tested in cell-free superoxide production assays. Phox-I2 was added to p67 phox (50 nM) in a total volume of 200 μl, and incubated for 30 min at room temperature. A mixture of solubilized macrophage membrane (5 nM cytochrome b 558 heme), p47 phox (50 nM), and Rac1 GMPPNP (nonprenylated) (50 nm), were added. Lithium dodecyl sulfate (LiDS) was added at 130 μM and incubated for 90 sec at room temperature. NADPH was then added (238 μM) and superoxide production measured. In this system, a turnover of 58.88 mol superoxide/sec/mol cytochrome b558 heme was measured. The results were calculated by taking superoxide production in the absence of Phox-I2 as 100% and values obtained with Phox-I2 were expressed as % inhibition. The mean data represent those from six separate experiments.

SMILES | binding to Rac1V12 (Rac1V12 protein) | phosphorylated Pak levels (Pak) | binding to p67^phox R188 mutant (p67^phox mutation, R188A) | cells with F-actin polarization [1] | Rac1-GMPPNP induced superoxide burst (reconstituted NOX2)
COc1ccc2c(c1)C1C=C(c3ccccc3)NN1C(c1cccc([N+](=O)[O-])c1)O2 (stereo not shown) [Phox-I1] | unable to bind; also recorded: no detectable binding | not | retained the binding activity | about 80% | –
O=[N+]([O-])c1cccc(C2Nc3ccc([N+](=O)[O-])cc3C3C=CCC32)c1 (stereo not shown) [Phox-I2] | – | not | – | about 80% | dose-dependent inhibition; also recorded: dose-dependently inhibit
